Laboratory results: patent US11857519B2, “Compounds and methods for the targeted degradation of enhancer of zeste homolog 2 polypeptide” (Arvinas Operations, Inc., priority 2016, dated 2024)

Biological target: T1, EZH2 (Homo sapiens, UniProt Q15910)
T1 construct: Protocol of the Cellular Assay of Target Protein Degradation (VCaP Cells, ELISA); endogenous in cells; host or cells: VCaP cells
Test: Cellular assay of target protein degradation (VCaP cells, ELISA)
Type: cell-based
Details: 4 hours, protein degradation range at indicated concentration (relative to DMSO control)
In short: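 VCaP cells grown ≥3 days in RPMI with 5% CSS, then dosed with compounds in 0.1% DMSO for 4 h. Lysates analysed by sandwich ELISA for EZH2 with TMB readout at 450 nm, 562 nm used for background subtraction.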

T1 sequence (Q15910 whole entry): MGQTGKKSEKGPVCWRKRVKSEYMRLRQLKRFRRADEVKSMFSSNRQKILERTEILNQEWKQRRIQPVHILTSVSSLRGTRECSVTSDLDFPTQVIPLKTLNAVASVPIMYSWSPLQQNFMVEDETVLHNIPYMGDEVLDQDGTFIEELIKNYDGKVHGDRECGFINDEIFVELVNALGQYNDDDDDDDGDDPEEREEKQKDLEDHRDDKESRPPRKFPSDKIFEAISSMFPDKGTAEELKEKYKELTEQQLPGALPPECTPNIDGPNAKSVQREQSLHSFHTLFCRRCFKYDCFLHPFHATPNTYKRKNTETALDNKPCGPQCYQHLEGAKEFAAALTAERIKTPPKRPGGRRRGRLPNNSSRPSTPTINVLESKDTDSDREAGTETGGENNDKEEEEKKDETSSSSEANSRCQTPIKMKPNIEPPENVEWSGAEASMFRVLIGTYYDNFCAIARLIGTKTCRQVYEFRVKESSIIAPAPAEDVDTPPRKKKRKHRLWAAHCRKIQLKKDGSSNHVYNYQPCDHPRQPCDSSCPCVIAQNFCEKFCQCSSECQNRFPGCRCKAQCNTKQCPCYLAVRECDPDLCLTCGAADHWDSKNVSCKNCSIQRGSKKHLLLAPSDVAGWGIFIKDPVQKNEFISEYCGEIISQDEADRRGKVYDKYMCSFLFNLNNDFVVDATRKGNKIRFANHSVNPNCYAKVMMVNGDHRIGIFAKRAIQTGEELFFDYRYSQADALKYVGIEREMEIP
T1 sequence (O75530 whole entry partner): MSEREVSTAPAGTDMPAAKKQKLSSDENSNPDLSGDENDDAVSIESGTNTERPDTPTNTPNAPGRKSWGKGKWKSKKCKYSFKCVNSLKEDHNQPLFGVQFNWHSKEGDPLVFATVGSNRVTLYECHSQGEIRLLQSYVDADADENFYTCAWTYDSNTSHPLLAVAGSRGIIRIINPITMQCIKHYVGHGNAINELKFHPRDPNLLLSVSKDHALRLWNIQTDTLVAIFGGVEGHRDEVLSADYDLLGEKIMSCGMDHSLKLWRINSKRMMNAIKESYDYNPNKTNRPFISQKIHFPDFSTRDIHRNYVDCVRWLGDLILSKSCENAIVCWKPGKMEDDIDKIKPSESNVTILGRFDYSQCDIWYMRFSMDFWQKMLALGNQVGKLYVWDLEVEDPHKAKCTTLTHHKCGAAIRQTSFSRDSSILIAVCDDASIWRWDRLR
T1 sequence (Q15022 whole entry partner): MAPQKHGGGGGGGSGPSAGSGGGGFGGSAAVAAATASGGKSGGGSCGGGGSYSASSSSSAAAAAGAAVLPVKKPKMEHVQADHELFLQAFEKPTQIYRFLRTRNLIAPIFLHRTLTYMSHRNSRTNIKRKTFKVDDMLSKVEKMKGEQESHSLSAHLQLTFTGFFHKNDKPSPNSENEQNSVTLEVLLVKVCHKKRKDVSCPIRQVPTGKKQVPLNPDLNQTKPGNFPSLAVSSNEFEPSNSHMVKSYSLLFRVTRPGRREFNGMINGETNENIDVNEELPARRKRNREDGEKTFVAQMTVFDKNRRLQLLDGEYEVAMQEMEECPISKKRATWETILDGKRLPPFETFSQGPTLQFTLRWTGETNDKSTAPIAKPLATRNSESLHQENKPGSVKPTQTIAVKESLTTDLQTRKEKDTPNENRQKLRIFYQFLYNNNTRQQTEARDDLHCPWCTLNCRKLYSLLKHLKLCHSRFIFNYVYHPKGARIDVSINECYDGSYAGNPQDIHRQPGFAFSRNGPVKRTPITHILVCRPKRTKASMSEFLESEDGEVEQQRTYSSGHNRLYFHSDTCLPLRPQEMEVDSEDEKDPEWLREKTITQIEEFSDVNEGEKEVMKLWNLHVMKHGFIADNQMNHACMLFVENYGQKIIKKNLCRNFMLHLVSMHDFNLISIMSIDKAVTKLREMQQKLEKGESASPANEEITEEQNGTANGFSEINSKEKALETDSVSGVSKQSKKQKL

Row | Compound | percent target protein degradation class
1 | CCN(c1cc(-c2ccc(OCCCCOCCOc3cc(-c4scnc4C)ccc3CNC(=O)[C@@H]3C[C@@H](O)CN3C(=O)[C@H](C(C)C)N3Cc4ccccc4C3=O)cc2)cc(C(=O)NCc2c(C)cc(C)[nH]c2=O)c1C)C1CCOCC1 [Compound 53, (2S,4R)-N-{[2-(2-{4-[4-(3-{[(4,6-dimethyl-2-oxo-1,2-dihydropyridin-3-yl)methyl]carbamoyl}-5-[ethyl(oxan-4-yl)amino]-4-methylphenyl)phenoxy]butoxy}ethoxy)-4-(4-methyl-1,3-thiazol-5-yl)phenyl]methyl}-4-hydroxy-1-[(2S)-3-methyl-2-(1-oxo-2,3-dihydro-1H-isoindol-2-yl)butanoyl]pyrrolidine-2-carboxamide] | B (B = degradation between 30% and 60%)
2 | CCN(c1cc(-c2ccc(COCCOc3ccc4c(c3)C(=O)N([C@H](C(=O)N3C[C@H](O)C[C@H]3C(=O)N[C@@H](C)c3ccc(-c5scnc5C)cc3)C(C)C)C4)cc2)cc(C(=O)NCc2c(C)cc(C)[nH]c2=O)c1C)C1CCOCC1 [Compound 99, (2S,4R)-1-((S)-2-(6-(2-((3′-((4,6-dimethyl-2-oxo-1,2-dihydropyridin-3-yl)methylcarbamoyl)-5′-(ethyl(tetrahydro-2H-pyran-4-yl)amino)-4′-methylbiphenyl-4-yl)methoxy)ethoxy)-1-oxoisoindolin-2-yl)-3-methylbutanoyl)-4-hydroxy-N—((S)-1-(4-(4-methylthiazol-5-yl)phenyl)ethyl)pyrrolidine-2-carboxamide] | A (A = degradation more than 60%)
3 | CCN(c1cc(-c2ccc(OCCCCOc3cc(C(C(=O)N4C[C@H](O)C[C@H]4C(=O)N[C@@H](C)c4ccc(-c5scnc5C)cc4)C(C)C)on3)cc2)cc(C(=O)NCc2c(C)cc(C)[nH]c2=O)c1C)C1CCOCC1 (stereo partly drawn) [Compound 107, (2S,4R)-1-(2-(3-(4-(3′-((4,6-dimethyl-2-oxo-1,2-dihydropyridin-3-yl)methylcarbamoyl)-5′-(ethyl(tetrahydro-2H-pyran-4-yl)amino)-4′-methylbiphenyl-4-yloxy)butoxy)isoxazol-5-yl)-3-methylbutanoyl)-4-hydroxy-N—((S)-1-(4-(4-methylthiazol-5-yl)phenyl)ethyl)pyrrolidine-2-carboxamide] | A (A = degradation more than 60%)
4 | CCN(c1cc(-c2ccc(OCCOCCOCCOCCNc3cccc4c3C(=O)N(C3CCC(=O)NC3=O)C4=O)cc2)cc(C(=O)NCc2c(C)cc(C)[nH]c2=O)c1C)C1CCOCC1 (centres unmarked) [Compound 17, N-[(4,6-dimethyl-2-oxo-1,2-dihydropyridin-3-yl)methyl]-5-[4-({1-[2-(2,6-dioxopiperidin-3-yl)-1,3-dioxo-2,3-dihydro-1H-isoindol-4-yl]-4,7,10-trioxa-1-azadodecan-12-yl}oxy)phenyl]-3-[ethyl(oxan-4-yl)amino]-2-methylbenzamide] | B (B = degradation between 30% and 60%)
5 | Cc1cc(C)c(CNC(=O)c2c(C)n(C(C)C3CCN(C(=O)COCCOCCOCCOCCOCC(=O)N[C@H](C(=O)N4C[C@H](O)C[C@H]4C(=O)NCc4ccc(-c5scnc5C)cc4)C(C)(C)C)CC3)c3ccccc23)c(=O)[nH]1 (stereo partly drawn) [Compound 11, N-[(4,6-dimethyl-2-oxo-1,2-dihydropyridin-3-yl)methyl]-1-{1-[1-(1-{[(2S)-1-[(2S,4R)-4-hydroxy-2-({[4-(4-methyl-1,3-thiazol-5-yl)phenyl]methyl}carbamoyl)pyrrolidin-1-yl]-3,3-dimethyl-1-oxobutan-2-yl]carbamoyl}-2,5,8,11,14-pentaoxahexadecanoyl)piperidin-4-yl]ethyl}-2-methyl-1H-indole-3-carboxamide] | B (B = degradation between 30% and 60%)
6 | CCN(c1cc(-c2ccc(OCCCOCCCCOc3cc(-c4scnc4C)ccc3CNC(=O)[C@@H]3C[C@@H](O)CN3C(=O)[C@H](C(C)C)N3Cc4ccccc4C3=O)cc2)cc(C(=O)NCc2c(C)cc(C)[nH]c2=O)c1C)C1CCOCC1 [Compound 51, (2S,4R)-N-{[2-(4-{3-[4-(3-{[(4,6-dimethyl-2-oxo-1,2-dihydropyridin-3-yl)methyl]carbamoyl}-5-[ethyl(oxan-4-yl)amino]-4-methylphenyl)phenoxy]propoxy}butoxy)-4-(4-methyl-1,3-thiazol-5-yl)phenyl]methyl}-4-hydroxy-1-[(2S)-3-methyl-2-(1-oxo-2,3-dihydro-1H-isoindol-2-yl)butanoyl]pyrrolidine-2-carboxamide] | B (B = degradation between 30% and 60%)
7 | Cc1cc(C)c(CNC(=O)c2cc(-c3ccc(CN4CCN(CCOCCCCOCC(=O)N[C@H](C(=O)N5C[C@H](O)C[C@H]5C(=O)NCc5ccc(-c6scnc6C)cc5)C(C)(C)C)CC4)cc3)cc3c2ccn3C2CCCC2)c(=O)[nH]1 [Compound 3, 1-cyclopentyl-N-[(4,6-dimethyl-2-oxo-1,2-dihydropyridin-3-yl)methyl]-6-{4-[(4-{2-[4-({[(2S)-1-[(2S,4R)-4-hydroxy-2-({[4-(4-methyl-1,3-thiazol-5-yl)phenyl]methyl}carbamoyl)pyrrolidin-1-yl]-3,3-dimethyl-1-oxobutan-2-yl]carbamoyl}methoxy)butoxy]ethyl}piperazin-1-yl)methyl]phenyl}-1H-indole-4-carboxamide] | B (B = degradation between 30% and 60%)
8 | CCN(c1cc(-c2ccc(OCCOCCOCCOCCOCCOc3cc(-c4scnc4C)ccc3CNC(=O)[C@@H]3C[C@@H](O)CN3C(=O)[C@H](C(C)C)N3Cc4ccccc4C3=O)cc2)cc(C(=O)NCc2c(C)cc(C)[nH]c2=O)c1C)C1CCOCC1 [Compound 35, (2S,4R)-N-{[2-({1-[4-(3-{[(4,6-dimethyl-2-oxo-1,2-dihydropyridin-3-yl)methyl]carbamoyl}-5-[ethyl(oxan-4-yl)amino]-4-methylphenyl)phenyl]-1,4,7,10,13-pentaoxapentadecan-15-yl}oxy)-4-(4-methyl-1,3-thiazol-5-yl)phenyl]methyl}-4-hydroxy-1-[(2S)-3-methyl-2-(1-oxo-2,3-dihydro-1H-isoindol-2-yl)butanoyl]pyrrolidine-2-carboxamide] | B (B = degradation between 30% and 60%)

The remaining lines, values ahead:

Row | percent target protein degradation class | Compound
9 | A (A = degradation more than 60%) | CCN(c1cc(-c2ccc(OCCOc3ccc4c(c3)C(=O)N([C@H](C(=O)N3C[C@H](O)C[C@H]3C(=O)N[C@@H](C)c3ccc(-c5scnc5C)cc3)C(C)C)C4)cc2)cc(C(=O)NCc2c(C)cc(C)[nH]c2=O)c1C)C1CCOCC1 [Compound 100]
10 | A (A = degradation more than 60%) | CCN(c1cc(-c2ccc(CN3CCN(CCCOCC(=O)N[C@H](C(=O)N4C[C@H](O)C[C@H]4C(=O)N[C@@H](C)c4ccc(-c5scnc5C)cc4)C(C)(C)C)CC3)cc2)cc(C(=O)NCc2c(C)cc(C)[nH]c2=O)c1C)C1CCOCC1 [Compound 118, (2S,4R)-1-((S)-2-(2-(3-(4-((3′-(((4,6-dimethyl-2-oxo-1,2-dihydropyridin-3-yl)methyl)carbamoyl)-5′-(ethyl(tetrahydro-2H-pyran-4-yl)amino)-4′-methyl-[1,1′-biphenyl]-4-yl)methyl)piperazin-1-yl)propoxy)acetamido)-3,3-dimethylbutanoyl)-4-hydroxy-N-((S)-1-(4-(4-methylthiazol-5-yl)phenyl)ethyl)pyrrolidine-2-carboxamide]
11 | A (A = degradation more than 60%) | CCN(c1cc(-c2ccc(CCOCCOc3cc(C(C(=O)N4C[C@H](O)C[C@H]4C(=O)N[C@@H](C)c4ccc(-c5scnc5C)cc4)C(C)C)on3)cc2)cc(C(=O)NCc2c(C)cc(C)[nH]c2=O)c1C)C1CCOCC1 (stereo partly drawn) [Compound 110, (2S,4R)-1-(2-(3-(2-(2-(3′-(((4,6-dimethyl-2-oxo-1,2-dihydropyridin-3-yl)methyl)carbamoyl)-5′-(ethyl(tetrahydro-2H-pyran-4-yl)amino)-4′-methyl-[1,1′-biphenyl]-4-yl)ethoxy)ethoxy)isoxazol-5-yl)-3-methylbutanoyl)-4-hydroxy-N-((S)-1-(4-(4-methylthiazol-5-yl)phenyl)ethyl)pyrrolidine-2-carboxamide]
12 | B (B = degradation between 30% and 60%) | CCN(c1cc(-c2ccc(OCCOCCOCC(=O)N[C@H](C(=O)N3C[C@@H](O)C[C@@H]3C(=O)N[C@@H](C)c3ccc(-c4scnc4C)cc3)C(C)(C)C)cc2)cc(C(=O)NCc2c(C)cc(C)[nH]c2=O)c1C)C1CCOCC1 [Compound 96, (2R,4S)-1-((S)-2-(2-(2-(2-((3′-(((4,6-dimethyl-2-oxo-1,2-dihydropyridin-3-yl)methyl)carbamoyl)-5′-(ethyl(tetrahydro-2H-pyran-4-yl)amino)-4′-methyl-[1,1′-biphenyl]-4-yl)oxy)ethoxy)ethoxy)acetamido)-3,3-dimethylbutanoyl)-4-hydroxy-N-((S)-1-(4-(4-methylthiazol-5-yl)phenyl)ethyl)pyrrolidine-2-carboxamide]
13 | B (B = degradation between 30% and 60%) | CCN(c1cc(-c2ccc(OCCCOCCOCC(=O)N[C@H](C(=O)N3C[C@H](O)C[C@H]3C(=O)NCc3ccc(-c4scnc4C)cc3)C(C)(C)C)cc2)cc(C(=O)NCc2c(C)cc(C)[nH]c2=O)c1C)C1CCOCC1 [Compound 45, (2S,4R)-1-[(2S)-2-[2-(2-{3-[4-(3-{[(4,6-dimethyl-2-oxo-1,2-dihydropyridin-3-yl)methyl]carbamoyl}-5-[ethyl(oxan-4-yl)amino]-4-methylphenyl)phenoxy]propoxy}ethoxy)acetamido]-3,3-dimethylbutanoyl]-4-hydroxy-N-{[4-(4-methyl-1,3-thiazol-5-yl)phenyl]methyl}pyrrolidine-2-carboxamide]
14 | B (B = degradation between 30% and 60%) | CCN(c1cc(-c2ccc(OCCCN3CCN(c4ccc5c(c4)C(=O)N(C4CCC(=O)NC4=O)C5=O)CC3)cc2)cc(C(=O)NCc2c(C)cc(C)[nH]c2=O)c1C)C1CCOCC1 (centres unmarked) [Compound 61, N-[(4,6-dimethyl-2-oxo-1,2-dihydropyridin-3-yl)methyl]-5-[4-(3-{4-[2-(2,6-dioxopiperidin-3-yl)-1,3-dioxo-2,3-dihydro-1H-isoindol-5-yl]piperazin-1-yl}propoxy)phenyl]-3-[ethyl(oxan-4-yl)amino]-2-methylbenzamide]
